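Interpolation was linear, between the two tested concentrations surrounding the appropriate level; five concentrations were tested over 48 hours in 96-well plates. GI50: concentration for 50% inhibition of growth. Definition used: TGI = concentration required for complete inhibition of growth.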
How the values were obtained:
Test in all cases: DTP human tumour cell line panel, 48 h
HCT-116 colon = test system: HCT-116 colon
CAKI-1 renal = test system: CAKI-1 renal
COLO 205 colon = test system: COLO 205 colon
ACHN renal = test system: ACHN renal
OVCAR-3 ovarian = test system: OVCAR-3 ovarian
KM12 colon = test system: KM12 colon
MALME-3M melanoma = test system: MALME-3M melanoma
NCI/ADR-RES ovarian = test system: NCI/ADR-RES ovarian
HS 578T breast = test system: HS 578T breast
SF-539 CNS = test system: SF-539 CNS
NCI-H460 lung = test system: NCI-H460 lung
SNB-75 CNS = test system: SNB-75 CNS
OVCAR-4 ovarian = test system: OVCAR-4 ovarian
HCT-15 colon = test system: HCT-15 colon
SK-MEL-5 melanoma = test system: SK-MEL-5 melanoma
OVCAR-8 ovarian = test system: OVCAR-8 ovarian
NCI-H226 lung = test system: NCI-H226 lung
BT-549 breast = test system: BT-549 breast
MDA-MB-231 breast = test system: MDA-MB-231 breast
TK-10 renal = test system: TK-10 renal
SW-620 colon = test system: SW-620 colon
EKVX NSCLC = test system: EKVX NSCLC
HL-60(TB) leukemia = test system: HL-60(TB) leukemia
NCI-H522 lung = test system: NCI-H522 lung
PC-3 prostate = test system: PC-3 prostate
CCRF-CEM leukemia = test system: CCRF-CEM leukemia
SK-MEL-2 melanoma = test system: SK-MEL-2 melanoma
SR leukemia = test system: SR leukemia
SK-MEL-28 melanoma = test system: SK-MEL-28 melanoma
A549 NSCLC = test system: A549 NSCLC
HCC-2998 colon = test system: HCC-2998 colon
RPMI-8226 leukemia = test system: RPMI-8226 leukemia
SK-OV-3 ovarian = test system: SK-OV-3 ovarian
UO-31 renal = test system: UO-31 renal
SF-295 CNS = test system: SF-295 CNS
U251 CNS = test system: U251 CNS
RXF 393 renal = test system: RXF 393 renal
SF-268 CNS = test system: SF-268 CNS
MOLT-4 leukemia = test system: MOLT-4 leukemia
786-0 renal = test system: 786-0 renal
SN12C renal = test system: SN12C renal
DU-145 prostate = test system: DU-145 prostate
NCI-H23 lung = test system: NCI-H23 lung
MDA-MB-435 = test system: MDA-MB-435
HOP-92 NSCLC = test system: HOP-92 NSCLC
SNB-19 CNS = test system: SNB-19 CNS
T-47D breast = test system: T-47D breast
UACC-62 melanoma = test system: UACC-62 melanoma
UACC-257 melanoma = test system: UACC-257 melanoma
OVCAR-5 ovarian = test system: OVCAR-5 ovarian
HT29 colon = test system: HT29 colon
A498 renal = test system: A498 renal
MCF7 breast = test system: MCF7 breast
HOP-62 NSCLC = test system: HOP-62 NSCLC
LOX IMVI melanoma = test system: LOX IMVI melanoma
IGROV1 ovarian = test system: IGROV1 ovarian

SMILES: CC#CC(=O)N1CC[C@@H](n2c(=O)n(-c3ccc(Oc4ccccc4)cc3)c3c(N)ncnc32)C1
- GI50 (HCT-116 colon): 24.8 µM
- TGI (HCT-116 colon): 98.4 µM
- GI50 (CAKI-1 renal): 13.8 µM
- TGI (CAKI-1 renal): > 100 µM
- GI50 (COLO 205 colon): 36.6 µM
- TGI (COLO 205 colon): > 100 µM
- GI50 (ACHN renal): 21.4 µM
- TGI (ACHN renal): > 100 µM
- GI50 (OVCAR-3 ovarian): 25.7 µM
- TGI (OVCAR-3 ovarian): > 100 µM
- GI50 (KM12 colon): 32.9 µM
- TGI (KM12 colon): > 100 µM
- GI50 (MALME-3M melanoma): 18 µM
- TGI (MALME-3M melanoma): > 100 µM
- GI50 (NCI/ADR-RES ovarian): 24.2 µM
- TGI (NCI/ADR-RES ovarian): > 100 µM
- GI50 (HS 578T breast): 22.5 µM
- TGI (HS 578T breast): > 100 µM
- GI50 (SF-539 CNS): 25 µM
- TGI (SF-539 CNS): > 100 µM
- GI50 (NCI-H460 lung): 33 µM
- TGI (NCI-H460 lung): > 100 µM
- GI50 (SNB-75 CNS): 29.8 µM
- TGI (SNB-75 CNS): > 100 µM
- GI50 (OVCAR-4 ovarian): 20.4 µM
- TGI (OVCAR-4 ovarian): > 100 µM
- GI50 (HCT-15 colon): 26.3 µM
- TGI (HCT-15 colon): > 100 µM
- GI50 (SK-MEL-5 melanoma): 16.9 µM
- TGI (SK-MEL-5 melanoma): 38.8 µM
- GI50 (OVCAR-8 ovarian): 40.6 µM
- TGI (OVCAR-8 ovarian): > 100 µM
- GI50 (NCI-H226 lung): 23.1 µM
- TGI (NCI-H226 lung): > 100 µM
- GI50 (BT-549 breast): 14.5 µM
- TGI (BT-549 breast): 55 µM
- GI50 (MDA-MB-231 breast): 19.5 µM
- TGI (MDA-MB-231 breast): 72.6 µM
- GI50 (TK-10 renal): 35 µM
- TGI (TK-10 renal): > 100 µM
- GI50 (SW-620 colon): 47.6 µM
- TGI (SW-620 colon): > 100 µM
- GI50 (EKVX NSCLC): 19.7 µM
- TGI (EKVX NSCLC): > 100 µM
- GI50 (HL-60(TB) leukemia): 23.5 µM
- TGI (HL-60(TB) leukemia): 77.4 µM
- GI50 (NCI-H522 lung): 10.8 µM
- TGI (NCI-H522 lung): 92.7 µM
- GI50 (PC-3 prostate): 29.1 µM
- TGI (PC-3 prostate): > 100 µM
- GI50 (CCRF-CEM leukemia): 26.2 µM
- TGI (CCRF-CEM leukemia): > 100 µM
- GI50 (SK-MEL-2 melanoma): 38.8 µM
- TGI (SK-MEL-2 melanoma): > 100 µM
- GI50 (SR leukemia): 14.3 µM
- TGI (SR leukemia): > 100 µM
- GI50 (SK-MEL-28 melanoma): 35.8 µM
- TGI (SK-MEL-28 melanoma): > 100 µM
- GI50 (A549 NSCLC): 55 µM
- TGI (A549 NSCLC): > 100 µM
- GI50 (HCC-2998 colon): 42.5 µM
- TGI (HCC-2998 colon): > 100 µM
- GI50 (RPMI-8226 leukemia): 14.7 µM
- TGI (RPMI-8226 leukemia): 66.3 µM
- GI50 (SK-OV-3 ovarian): 40.6 µM
- TGI (SK-OV-3 ovarian): > 100 µM
- GI50 (UO-31 renal): 10.8 µM
- TGI (UO-31 renal): > 100 µM
- GI50 (SF-295 CNS): 29.5 µM
- TGI (SF-295 CNS): > 100 µM
- GI50 (U251 CNS): 35.8 µM
- TGI (U251 CNS): > 100 µM
- GI50 (RXF 393 renal): 37.3 µM
- TGI (RXF 393 renal): > 100 µM
- GI50 (SF-268 CNS): 30.3 µM
- TGI (SF-268 CNS): > 100 µM
- GI50 (MOLT-4 leukemia): 10.2 µM
- TGI (MOLT-4 leukemia): 62.1 µM
- GI50 (786-0 renal): 21.5 µM
- TGI (786-0 renal): > 100 µM
- GI50 (SN12C renal): 20.8 µM
- TGI (SN12C renal): > 100 µM
- GI50 (DU-145 prostate): 33.5 µM
- TGI (DU-145 prostate): > 100 µM
- GI50 (NCI-H23 lung): 36.8 µM
- TGI (NCI-H23 lung): > 100 µM
- GI50 (MDA-MB-435): 27.4 µM
- TGI (MDA-MB-435): > 100 µM
- GI50 (HOP-92 NSCLC): 16.4 µM
- TGI (HOP-92 NSCLC): 68.1 µM
- GI50 (SNB-19 CNS): 37.4 µM
- TGI (SNB-19 CNS): > 100 µM
- GI50 (T-47D breast): 12.2 µM
- TGI (T-47D breast): 62.9 µM
- GI50 (UACC-62 melanoma): 14.8 µM
- TGI (UACC-62 melanoma): 42.8 µM
- GI50 (UACC-257 melanoma): 51.8 µM
- TGI (UACC-257 melanoma): > 100 µM
- GI50 (OVCAR-5 ovarian): 46.6 µM
- TGI (OVCAR-5 ovarian): > 100 µM
- GI50 (HT29 colon): 34.7 µM
- TGI (HT29 colon): > 100 µM
- GI50 (A498 renal): 6.38 µM
- TGI (A498 renal): 44.6 µM
- GI50 (MCF7 breast): 23.5 µM
- TGI (MCF7 breast): > 100 µM
- GI50 (HOP-62 NSCLC): 33.5 µM
- TGI (HOP-62 NSCLC): > 100 µM
- GI50 (LOX IMVI melanoma): 18.6 µM
- TGI (LOX IMVI melanoma): 83.4 µM
- GI50 (IGROV1 ovarian): 15.2 µM
- TGI (IGROV1 ovarian): 60.8 µM

Reference: PubChem BioAssay (NCI)
